According to patent US20080090873A1, “Sulfonamide derivatives” (priority 2006, published 2008):

Columns and labels:
[1] = target: human muscarinic M3 receptor (Homo sapiens, UniProt P20309); assay: Whole cell β-lactamase reporter assay of antagonist activity in CHO cells expressing the hM3 receptor; assay type: cell-based; details: NFAT β-lactamase reporter, inhibition of 80 nM carbamyl choline signal, 4 h
Procedure: Functional Assessment of Antagonist Activity Using a Whole Cell β-Lactamase Reporter Assay in CHO Cells Expressing the hM3 Receptor.
CHO (Chinese Hamster Ovary) cells recombinantly expressing the human muscarinic M3 receptor were transfected with the NFAT_β-Lac_Zeo plasmid. Cells were grown in DMEM with Glutamax-1, supplemented with 25 mM HEPES (Life Technologies 32430-027), containing 10% FCS (Foetal Calf Serum; Sigma F-7524), […] Sodium pyruvate (Sigma S-8636), NEAA (non-Essential Amino Acids; Invitrogen 11140-035) and 200 μg/ml Zeocin (Invitrogen R250-01).
Cells were harvested for assay when they reached 80-90% confluency using enzyme free cell Dissociation Solution (Life technologies 13151-014) incubated with the cells for 5 min at 37° C. in an atmosphere containing 5% CO2. Detached cells were collected in warmed growth media and centrifuged at 2000 rpm for 10 min, washed in PBS (Phosphate Buffered Saline; Life Technologies 14190-094) and centrifuged again as just described. The cells were re-suspended at 2×10^5 cells/ml in growth medium (composition as described above). 20 μl of this cell suspension was added to each well of a 384 well black clear bottomed plate (Greiner Bio One 781091-PFI). The assay buffer used was PBS supplemented with 0.05% Pluronic F-127 (Sigma 9003-11-6) and 2.5% DMSO. Muscarinic M3 receptor signalling was stimulated using 80 nM carbamyl choline (Aldrich N240-9) incubated with the cells for 4 h at 37° C./5% CO2 and monitored at the end of the incubation period using a Tecan SpectraFluor+ plate reader (λ-excitation 405 nm, emission 450 nm and 503 nm). Compounds under test were added to the assay at the beginning of the 4 h incubation period and compound activity measured as the concentration dependent inhibition of the carbamyl choline induced signal. Inhibition curves were plotted and IC50 values generated using a 4-parameter sigmoid fit and converted to Ki values using the Cheng-Prusoff correction and the KD value for carbamyl choline in the assay.

[2] = target: human adrenergic B2 receptor (Homo sapiens, UniProt P07550); assay: Whole cell luciferase reporter assay of agonist potency in CHO cells expressing the hB2 receptor; assay type: cell-based; details: 4 h incubation, read-out: EC50 - beta2
Procedure: Functional Assessment of Agonist Potency and Efficacy Using a Whole Cell Luciferase Reporter Assay in CHO Cells Expressing the hB2 Receptor.
CHO (Chinese Hamster Ovary) cells recombinantly expressing the human adrenergic B2 receptor and transfected with a luciferase enzyme reporter gene were maintained in growth media composed of F12:DMEM (Sigma D6421) containing 10% Foetal Bovine Serum (FBS: Sigma F03921) 10 μg/ml puromycin (Sigma N277698), 0.5 mg/ml Geneticin G418 (Sigma G7034) and 2 mM L-glutamine (Sigma G7513). The cells were kept in sterile conditions at 37° C., in an atmosphere containing 5% CO2.
hB2 Luciferase Assay Protocol
Cells were harvested for assay when they reached 80-90% confluency using enzyme free cell Dissociation Solution (Life technologies 13151-014) incubated with the cells for 5 min at 37° C. in an atmosphere containing 5% CO2. Detached cells were collected in warmed growth media (composition described above), and re-suspended in assay media (F12:DMEM (Sigma D6421) containing 1% Foetal Bovine Serum (FBS: Sigma F03921), 10 μg/ml puromycin (Sigma N277698), 0.5 mg/ml Geneticin G418 (Sigma G7034) and 2 mM L-glutamine (Sigma G7513)) to give a viable cell concentration of 1×10^6 cells/ml. 10 ul of this suspension was added to each well of a tissue culture treated low volume 384 well plate (Greiner788073) and the plate incubated in an atmosphere containing 5% CO2 at 37° C. for 2 h. Concentration ranges of test compounds were prepared in phosphate Buffered Saline containing 0.05% pluronic-F127 (Sigma P2443) and 2.5% DMSO. […] At the end of the incubation period 4 μl of Steady-Glo reagent (Steady-Glo Luciferase assay system (Promega E2520) was added to each well and the plate read immediately in a Leadseeker Plate reader (Amersham Bioscience) using a 660 nm filter. Concentration effect curves were plotted and EC50 values generated using a 4-parameter sigmoid fit using an in-house data analysis programme. Isoprenaline was run in every assay as a reference standard.

human adrenergic B2 receptor, sequence (P07550 whole entry): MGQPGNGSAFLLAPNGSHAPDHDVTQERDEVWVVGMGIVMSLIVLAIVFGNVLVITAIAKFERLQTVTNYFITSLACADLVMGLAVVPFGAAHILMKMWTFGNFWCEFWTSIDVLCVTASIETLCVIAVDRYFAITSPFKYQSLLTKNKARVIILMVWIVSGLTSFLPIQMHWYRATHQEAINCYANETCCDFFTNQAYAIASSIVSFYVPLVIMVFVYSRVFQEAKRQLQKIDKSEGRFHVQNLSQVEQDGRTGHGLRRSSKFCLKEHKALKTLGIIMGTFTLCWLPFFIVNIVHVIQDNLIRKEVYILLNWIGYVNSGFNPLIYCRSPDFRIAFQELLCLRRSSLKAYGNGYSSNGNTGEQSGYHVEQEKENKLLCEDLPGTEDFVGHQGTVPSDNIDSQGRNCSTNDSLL
human muscarinic M3 receptor, sequence (P20309 whole entry): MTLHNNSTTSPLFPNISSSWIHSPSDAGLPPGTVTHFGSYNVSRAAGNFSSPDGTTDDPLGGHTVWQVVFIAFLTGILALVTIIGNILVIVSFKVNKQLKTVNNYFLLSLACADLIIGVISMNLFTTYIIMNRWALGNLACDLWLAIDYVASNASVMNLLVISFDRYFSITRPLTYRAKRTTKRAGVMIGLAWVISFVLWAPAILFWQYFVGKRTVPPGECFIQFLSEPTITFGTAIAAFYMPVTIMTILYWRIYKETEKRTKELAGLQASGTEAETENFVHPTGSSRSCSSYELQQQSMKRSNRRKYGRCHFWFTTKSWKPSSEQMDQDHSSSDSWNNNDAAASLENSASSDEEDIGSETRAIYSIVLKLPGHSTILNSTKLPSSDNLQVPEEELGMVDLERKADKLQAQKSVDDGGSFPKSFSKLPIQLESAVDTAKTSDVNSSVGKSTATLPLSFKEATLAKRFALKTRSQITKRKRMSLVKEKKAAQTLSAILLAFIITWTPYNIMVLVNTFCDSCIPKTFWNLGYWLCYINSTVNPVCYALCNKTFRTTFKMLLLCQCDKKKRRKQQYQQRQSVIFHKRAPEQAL

Row | IC50 [1] [pM] | EC50 [2] [pM] | SMILES
1 | 2930 | 1010 | CS(=O)(=O)Nc1cc([C@@H](O)CNCCCCCCCCCN2CCC(OC(=O)Nc3ccccc3-c3ccc(O)c(F)c3)CC2)ccc1O [Example 1, 1-(9-{[(2R)-2-Hydroxy-2-{4-hydroxy-3-[(methylsulfonyl)amino]phenyl}ethyl]amino}nonyl)piperidin-4-yl(3′-fluoro-4′-hydroxybiphenyl-2-yl)carbamate]
2 | 725 | 133 | CS(=O)(=O)Nc1cc([C@@H](O)CNCCCCCCCCCN2CCC(OC(=O)Nc3ccccc3-c3ccc(O)c(Cl)c3)CC2)ccc1O [Example 2, 1-(9-{[(2R)-2-Hydroxy-2-{4-hydroxy-3-[(methylsulfonyl)amino]phenyl}ethyl]amino}nonyl)piperidin-4-yl(3′-chloro-4′-hydroxybiphenyl-2-yl)carbamate]
3 | 1070 | 252 | CS(=O)(=O)Nc1cc([C@@H](O)CNCCCCCCCCCN2CCC(OC(=O)Nc3ccc(F)cc3-c3ccc(O)c(Cl)c3)CC2)ccc1O [Example 3, 1-(9-{[(2R)-2-hydroxy-2-{4-hydroxy-3-[(methylsulfonyl)amino]phenyl}ethyl]amino}nonyl)piperidin-4-yl(3′-chloro-5-fluoro-4′-hydroxybiphenyl-2-yl)carbamate]
